pIC50: −log10 of the molar value.
What follows are molecules tested on Mo7e cells which endogenously express c-kit (assay: Mo7e assay: inhibition of SCF dependent proliferation (MTT)). Conditions: Table 1; SCF stimulated Mo7e cells, 48 hours, MTT.
Assay type: cell-based
Procedure: The compounds described herein are tested for inhibition of SCF dependent proliferation using Mo7e cells which endogenously express c-kit in a 96 well format. Two-fold serially diluted test compounds (Cmax=10 μM) are evaluated for their antiproliferative activity of Mo7e cells stimulated with human recombinant SCF. After 48 hours of incubation at 37° C., cell viability is measured by using a MTT colorimetric assay from Promega. IC50 values for compounds of the invention are quoted in table 1, supra.

SMILES | pIC50
CCC(C)c1nc(Nc2ccc(C)c(-c3cc4cnc(C)cc4n(C)c3=O)c2)no1 (stereo in doubt) [Compound A27, 3-[5-({5-[(2S)-butan-2-yl]-1,2,4-oxadiazol-3-yl}amino)-2-methylphenyl]-1,7-dimethyl-1,2-dihydro-1,6-naphthyridin-2-one] | 7.27
Cc1cc2c(cn1)cc(-c1cc(Nc3noc(C(O)C(C)C)n3)ccc1C)c(=O)n2C (stereo in doubt) [Compound A92, (R)-3-(5-(5-(1-hydroxy-2-methylpropyl)-1,2,4-oxadiazol-3-ylamino)-2-methylphenyl)-1,7-dimethyl-1,6-naphthyridin-2(1H)-one] | 6.98
Cc1cc2c(cn1)cc(-c1cc(Nc3noc(C(O)C(C)C)n3)ccc1C)c(=O)n2C (stereo in doubt) [Compound A93, 3-[5-({5-[(1S)-1-hydroxy-2-methylpropyl]-1,2,4-oxadiazol-3-yl}amino)-2-methylphenyl]-1,7-dimethyl-1,2-dihydro-1,6-naphthyridin-2-one] | 6.55
Cc1cc2c(cn1)cc(-c1cc(Nc3noc(-c4ccc(Cl)nc4)n3)ccc1C)c(=O)n2C [Compound A1, 3-(5-{[5-(6-chloropyridin-3-yl)-1,2,4-oxadiazol-3-yl]amino}-2-methylphenyl)-1,7-dimethyl-1,2-dihydro-1,6-naphthyridin-2-one] | 7.00
Cc1cc2c(cn1)cc(-c1cc(Nc3noc(-c4cc(C)oc4C)n3)ccc1C)c(=O)n2C [Compound A2, 3-(5-{[5-(2,5-dimethylfuran-3-yl)-1,2,4-oxadiazol-3-yl]amino}-2-methylphenyl)-1,7-dimethyl-1,2-dihydro-1,6-naphthyridin-2-one] | 6.90
Cc1cc2c(cn1)cc(-c1cc(Nc3noc(-c4ccc(C(F)(F)F)nc4)n3)ccc1C)c(=O)n2C [Compound A4, 1,7-dimethyl-3-[2-methyl-5-({5-[6-(trifluoromethyl)pyridin-3-yl]-1,2,4-oxadiazol-3-yl}amino)phenyl]-1,2-dihydro-1,6-naphthyridin-2-one] | 6.33
CCc1nc(Nc2ccc(C)c(-c3cc4cnc(C)cc4n(C)c3=O)c2)no1 [Compound A5, 3-(5-(5-ethyl-1,2,4-oxadiazol-3-ylamino)-2-methylphenyl)-1,7-dimethyl-1,6-naphthyridin-2(1H)-one] | 7.31
Cc1cc2c(cn1)cc(-c1cc(Nc3noc(C(C)C)n3)ccc1C)c(=O)n2C [Compound A6, 3-(5-(5-isopropyl-1,2,4-oxadiazol-3-ylamino)-2-methylphenyl)-1,7-dimethyl-1,6-naphthyridin-2(1H)-one] | 7.47
Cc1cc2c(cn1)cc(-c1cc(Nc3noc(-c4ccccc4)n3)ccc1C)c(=O)n2C [Compound A7, 1,7-dimethyl-3-(2-methyl-5-(5-phenyl-1,2,4-oxadiazol-3-ylamino)phenyl)-1,6-naphthyridin-2(1H)-one] | 7.12
Cc1cc2c(cn1)cc(-c1cc(Nc3noc(-c4ccccc4Cl)n3)ccc1C)c(=O)n2C [Compound A8, 3-(5-{[5-(2-chlorophenyl)-1,2,4-oxadiazol-3-yl]amino}-2-methylphenyl)-1,7-dimethyl-1,2-dihydro-1,6-naphthyridin-2-one] | 6.80
Cc1cc2c(cn1)cc(-c1cc(Nc3noc(-c4nccs4)n3)ccc1C)c(=O)n2C [Compound A9, 1,7-dimethyl-3-(2-methyl-5-(5-(thiazol-2-yl)-1,2,4-oxadiazol-3-ylamino)phenyl)-1,6-naphthyridin-2(1H)-one] | 6.69
Cc1cc2c(cn1)cc(-c1cc(Nc3noc(-c4cccnc4)n3)ccc1C)c(=O)n2C [Compound A10, 1,7-dimethyl-3-(2-methyl-5-{[5-(pyridin-3-yl)-1,2,4-oxadiazol-3-yl]amino}phenyl)-1,2-dihydro-1,6-naphthyridin-2-one] | 6.84
Cc1cc2c(cn1)cc(-c1cc(Nc3noc(C4CCC4)n3)ccc1C)c(=O)n2C [Compound A11, 3-{5-[(5-cyclobutyl-1,2,4-oxadiazol-3-yl)amino]-2-methylphenyl}-1,7-dimethyl-1,2-dihydro-1,6-naphthyridin-2-one] | 7.92
Cc1cc2c(cn1)cc(-c1cc(Nc3noc(-c4ccc(Cl)cc4)n3)ccc1C)c(=O)n2C [Compound A12, 3-(5-{[5-(4-chlorophenyl)-1,2,4-oxadiazol-3-yl]amino}-2-methylphenyl)-1,7-dimethyl-1,2-dihydro-1,6-naphthyridin-2-one] | 7.89
Cc1ccc(-c2nc(Nc3ccc(C)c(-c4cc5cnc(C)cc5n(C)c4=O)c3)no2)cc1 [Compound A13, 1,7-dimethyl-3-(2-methyl-5-{[5-(4-methylphenyl)-1,2,4-oxadiazol-3-yl]amino}phenyl)-1,2-dihydro-1,6-naphthyridin-2-one] | 7.89
Cc1cc2c(cn1)cc(-c1cc(Nc3noc(C4CCCC4)n3)ccc1C)c(=O)n2C [Compound A15, 3-{5-[(5-cyclopentyl-1,2,4-oxadiazol-3-yl)amino]-2-methylphenyl}-1,7-dimethyl-1,2-dihydro-1,6-naphthyridin-2-one] | 7.55

SMILES | pIC50
Cc1cc2c(cn1)cc(-c1cc(Nc3noc(-c4ccccc4C)n3)ccc1C)c(=O)n2C [Compound A16, 1,7-dimethyl-3-(2-methyl-5-{[5-(2-methylphenyl)-1,2,4-oxadiazol-3-yl]amino}phenyl)-1,2-dihydro-1,6-naphthyridin-2-one] | 6.94
Cc1cccc(-c2nc(Nc3ccc(C)c(-c4cc5cnc(C)cc5n(C)c4=O)c3)no2)c1 [Compound A17, 1,7-dimethyl-3-(2-methyl-5-{[5-(3-methylphenyl)-1,2,4-oxadiazol-3-yl]amino}phenyl)-1,2-dihydro-1,6-naphthyridin-2-one] | 6.62
Cc1cc2c(cn1)cc(-c1cc(Nc3noc(C4CCCCC4)n3)ccc1C)c(=O)n2C [Compound A18, 3-{5-[(5-cyclohexyl-1,2,4-oxadiazol-3-yl)amino]-2-methylphenyl}-1,7-dimethyl-1,2-dihydro-1,6-naphthyridin-2-one] | 6.75
Cc1cc2c(cn1)cc(-c1cc(Nc3noc(CC(C)(C)C)n3)ccc1C)c(=O)n2C [Compound A19, 3-(5-{[5-(2,2-dimethylpropyl)-1,2,4-oxadiazol-3-yl]amino}-2-methylphenyl)-1,7-dimethyl-1,2-dihydro-1,6-naphthyridin-2-one] | 6.67
Cc1cc2c(cn1)cc(-c1cc(Nc3noc(-c4cccc(Cl)c4)n3)ccc1C)c(=O)n2C [Compound A20, 3-(5-{[5-(3-chlorophenyl)-1,2,4-oxadiazol-3-yl]amino}-2-methylphenyl)-1,7-dimethyl-1,2-dihydro-1,6-naphthyridin-2-one] | 6.48
Cc1cc2c(cn1)cc(-c1cc(Nc3noc(-c4cccn4C)n3)ccc1C)c(=O)n2C [Compound A21, 1,7-dimethyl-3-(2-methyl-5-{[5-(1-methyl-1H-pyrrol-2-yl)-1,2,4-oxadiazol-3-yl]amino}phenyl)-1,2-dihydro-1,6-naphthyridin-2-one] | 6.89
Cc1cc2c(cn1)cc(-c1cc(Nc3noc(-c4nccn4C)n3)ccc1C)c(=O)n2C [Compound A22, 1,7-dimethyl-3-(2-methyl-5-{[5-(1-methyl-1H-imidazol-2-yl)-1,2,4-oxadiazol-3-yl]amino}phenyl)-1,2-dihydro-1,6-naphthyridin-2-one] | 6.44
Cc1cc2c(cn1)cc(-c1cc(Nc3noc(C4CCCN4C)n3)ccc1C)c(=O)n2C (centres unmarked) [Compound A23, 1,7-dimethyl-3-(2-methyl-5-{[5-(1-methylpyrrolidin-2-yl)-1,2,4-oxadiazol-3-yl]amino}phenyl)-1,2-dihydro-1,6-naphthyridin-2-one] | 6.68
Cc1cc2c(cn1)cc(-c1cc(Nc3noc(-c4ccc(F)cc4)n3)ccc1C)c(=O)n2C [Compound A24, 3-(5-{[5-(4-fluorophenyl)-1,2,4-oxadiazol-3-yl]amino}-2-methylphenyl)-1,7-dimethyl-1,2-dihydro-1,6-naphthyridin-2-one] | 7.44
Cc1cc2c(cn1)cc(-c1cc(Nc3noc(-c4ccc(F)cn4)n3)ccc1C)c(=O)n2C [Compound A25, 3-(5-{[5-(5-fluoropyridin-2-yl)-1,2,4-oxadiazol-3-yl]amino}-2-methylphenyl)-1,7-dimethyl-1,2-dihydro-1,6-naphthyridin-2-one] | 7.09
Cc1cc2c(cn1)cc(-c1cc(Nc3noc(-c4ccc(Cl)cn4)n3)ccc1C)c(=O)n2C [Compound A26, 3-(5-{[5-(5-chloropyridin-2-yl)-1,2,4-oxadiazol-3-yl]amino}-2-methylphenyl)-1,7-dimethyl-1,2-dihydro-1,6-naphthyridin-2-one] | 7.57
CCCc1nc(Nc2ccc(C)c(-c3cc4cnc(C)cc4n(C)c3=O)c2)no1 [Compound A28, 1,7-dimethyl-3-{2-methyl-5-[(5-propyl-1,2,4-oxadiazol-3-yl)amino]phenyl}-1,2-dihydro-1,6-naphthyridin-2-one] | 7.30
CCC(C)c1nc(Nc2ccc(C)c(-c3cc4cnc(C)cc4n(C)c3=O)c2)no1 (centres unmarked) [Compound A29, 3-(5-{[5-(butan-2-yl)-1,2,4-oxadiazol-3-yl]amino}-2-methylphenyl)-1,7-dimethyl-1,2-dihydro-1,6-naphthyridin-2-one] | 7.24
Cc1cc2c(cn1)cc(-c1cc(Nc3noc(C(C)(C)C)n3)ccc1C)c(=O)n2C [Compound A30, 3-{5-[(5-tert-butyl-1,2,4-oxadiazol-3-yl)amino]-2-methylphenyl}-1,7-dimethyl-1,2-dihydro-1,6-naphthyridin-2-one] | 6.61
CCC(CC)c1nc(Nc2ccc(C)c(-c3cc4cnc(C)cc4n(C)c3=O)c2)no1 [Compound A31, 1,7-dimethyl-3-(2-methyl-5-{[5-(pentan-3-yl)-1,2,4-oxadiazol-3-yl]amino}phenyl)-1,2-dihydro-1,6-naphthyridin-2-one] | 6.98
Cc1cc2c(cn1)cc(-c1cc(Nc3noc(C(C)(C)O)n3)ccc1C)c(=O)n2C [Compound A32, 3-(5-(5-(2-hydroxypropan-2-yl)-1,2,4-oxadiazol-3-ylamino)-2-methylphenyl)-1,7-dimethyl-1,6-naphthyridin-2(1H)-one] | 6.76
